Reference: BindingDB's records for doi:10.1073/pnas.86.24.9762 (Oregon Health Sciences University, 1989)

Molecular target: D(2) dopamine receptor (Homo sapiens, UniProt P14416)
Sequence (P14416 whole entry): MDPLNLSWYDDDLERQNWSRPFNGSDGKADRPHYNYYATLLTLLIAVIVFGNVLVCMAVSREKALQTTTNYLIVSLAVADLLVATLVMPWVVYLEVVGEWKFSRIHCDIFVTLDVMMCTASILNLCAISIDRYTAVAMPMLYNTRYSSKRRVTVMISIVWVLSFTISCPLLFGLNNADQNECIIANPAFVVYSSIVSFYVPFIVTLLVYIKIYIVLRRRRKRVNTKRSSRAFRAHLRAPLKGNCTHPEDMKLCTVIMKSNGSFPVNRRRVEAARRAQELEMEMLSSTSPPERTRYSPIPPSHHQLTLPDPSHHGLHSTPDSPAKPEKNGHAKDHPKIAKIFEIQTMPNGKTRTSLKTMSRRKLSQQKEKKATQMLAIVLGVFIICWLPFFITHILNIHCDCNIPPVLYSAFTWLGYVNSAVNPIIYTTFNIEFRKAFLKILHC

Ki: 2.68 µM
SMILES: CN1CCN2c3ccccc3Cc3ccccc3[C@H]2C1 [MIANSERIN (+)]
